The source of these data is patent US8399462B2, “JNK modulators” (Roche Palo Alto LLC, priority 2006, dated 2013).

The structures appear in SMILES notation.

The molecule `CC(C)(O)c1cccc2c1ccn2-c1ccnc(N[C@H]2CC[C@H](N(CCO)S(C)(=O)=O)CC2)n1` [Compound 240, N-(2-hydroxyethyl)-N-(4-{4-[4-(2-hydroxy-prop-2-yl)-indol-1-yl]-pyrimidin-2-ylamino}-cyclohexyl)-methane-sulfonamide] gave a melting point of 214 to 215 °C.
`CS(=O)(=O)N[C@H]1CC[C@H](Nc2nccc(-n3ccc4c(CC#N)cccc43)n2)CC1` [Compound 110, N-{4-[4-(4-cyano-methyl-indol-1-yl)-pyrimidin-2ylamino]-cyclohexyl}-methane-sulfonamide] yielded a melting point of 235 to 235.5 °C.
To `CN(c1cccc2c1ccn2-c1ccnc(N[C@H]2CC[C@H](O)CC2)n1)S(C)(=O)=O` [Compound 92, N-{1-[2-(4-hydroxy-cyclohexylamino)-pyrimidin-4-yl]-1H-indol-4-yl}-N-methyl-methanesulfonamide] belongs 235.8 to 236.2 °C; to `NS(=O)(=O)CCCOc1cccc2c1cnn2-c1ccnc(N[C@H]2CC[C@H](C(=O)N3CCCC3)CC2)n1` [Compound 276], 249 to 250 °C.
With `COC(=O)CCCOc1cccc2c1ccn2-c1ccnc(N[C@H]2CC[C@H](N(C)S(C)(=O)=O)CC2)n1` [Compound 284, 4-(1-{2-[4-(methane-sulfonyl-methylamino)-cyclohexylamino]-pyrimidin-4-yl}-1H-indol-4-yloxy)-butyric acid methyl ester] the figure was 145 to 146 °C; with `CC1(O)CCN(C(=O)[C@H]2CC[C@H](Nc3nccc(-n4ccc5c(OCCCS(C)(=O)=O)cccc54)n3)CC2)CC1` [Compound 292, (4-hydroxy-4-methyl-piperidin-1-yl)-(4-{4-[4-(3-methanesulfonyl-propoxy)-indol-1-yl]-pyrimidin-2-ylamino}-cyclohexyl)-methanone], 132.6 to 137.7 °C.
Consider `O[C@H]1CC[C@H](Nc2nccc(-n3ncc4c(OCc5ccccn5)cccc43)n2)CC1` [Compound 103, 4-{4-[4-(pyridine-2-yl-methoxy)-indazol-1-yl]-pyrimidin-2-ylamino}-cyclohexanol], for which the melting point fell in the range of 202.5 to 203.6 °C.
To `CS(=O)(=O)CCCOc1cccc2c1cnn2-c1ccnc(N[C@H]2CC[C@H](C(=O)N3CC[C@@H](O)C3)CC2)n1` (stereo in doubt) [Compound 216, (3-hydroxy-pyrrolidin-1-yl)-(4-{4-[4-(3-methane-sulfonyl-propoxy)-indazol-1-yl]-pyrimidin-2-ylamino}-cyclohexyl)-methanone] belongs 174 to 175 °C.
With `CS(=O)(=O)CCCOc1cccc2c1ccn2-c1ccnc(N[C@H]2CC[C@H](C(=O)N3CCC(F)CC3)CC2)n1` [Compound 239, (4-fluoro-piperidin-1-yl)-(4-{4-[4-(3-methane-sulfonyl-propoxy)-indol-1-yl]-pyrimidin-2ylamino}-cyclohexyl)-methanone] the figure was 115 to 116 °C; with `OCCOc1ccc2cnn(-c3ccnc(N[C@H]4CC[C@H](O)CC4)n3)c2c1` [Compound 89, 4-{4-[6-(2-hydroxy-ethoxy)-indazol-1-yl]-pyrimidin-2-ylamino}-cyclohexanol], 216.5 to 218.5 °C; with `CS(=O)(=O)N[C@H]1CC[C@H](Nc2nccc(-n3ncc4ccccc43)n2)CC1` [Example 12, trans-N-[4-(4-Indazol-1-ylpyrimidin-2-ylamino)-cyclohexyl]-methanesulfonamide], 269.6 to 270.4 °C.
For the molecule `CC(C)(O)[C@H]1CC[C@H](Nc2nccc(-n3ccc4c(CC#N)cccc43)n2)CC1` [Compound 123, (1-{2-[4-(1-hydroxy-1-methylethyl)-cyclo-hexylamino]-pyrimidin-4-yl}-1H-indol-4-yl)-acetonitrile], the melting point lay within 188 to 191.7 °C.
To `CC(C)(O)COc1cccc2c1ccn2-c1ccnc(N[C@H]2CC[C@H](C(=O)N3CCC(O)CC3)CC2)n1` [Compound 281, (4-{4-[4-(2-hydroxy-2-methyl-propoxy)-indol-1-yl]-pyrimidin-2-yl-amino}-cyclohexyl)-(4-hydroxy-piperidin-1-yl)-methanone] belongs 174 to 176.9 °C.
To `CS(=O)(=O)CCCOc1cccc2c1ccn2-c1ccnc(NC2CCC(F)(F)CC2)n1` [Compound 278, (4,4-difluorocyclo-hexyl)-{4-[4-(3-methane-sulfonyl-propoxy)-indol-1-yl]-pyrimidin-2-yl}-amine] belongs 200 to 201 °C; to `CCCCOc1cccc2c1cnn2-c1ccnc(N[C@H]2CC[C@H](O)CC2)n1` [Compound 168, 4-[4-(4-butoxy-indazol-1-yl)-pyrimidin-2-yl-amino]-cyclohexanol], 195 to 196 °C; to `CS(=O)(=O)CCCOc1cccc2c1ccn2-c1ccnc(N[C@H]2CC[C@H](C(=O)N3CCCC(O)C3)CC2)n1` (some centres unmarked) [Compound 291, (3-hydroxy-piperidin-1-yl)-(4-{4-[4-(3-methane-sulfonyl-propoxy)-indol-1-yl]-pyrimidin-2-ylamino}-cyclohexyl)-methanone], 167.3 to 170.5 °C.
The molecule `O=C([C@H]1CC[C@H](Nc2nccc(-n3ncc4ccccc43)n2)CC1)N1CCOCC1` [Example 6, trans-[4-(4-Indazol-1-yl-pyrimidin-2-ylamino)-cyclohexyl]-morpholin-4-yl-methanone] returned a melting point of 191 to 192 °C.
The molecule `COCCOc1cccc2c1ccn2-c1ccnc(N[C@H]2CC[C@H](C(=O)N3CCC(O)CC3)CC2)n1` [Compound 222, (4-hydroxy-piperidin-1-yl)-(4-{4-[4-(2-methoxy-ethoxy)-indol-1-yl]-pyrimidin-2-ylamino}-cyclohexyl)-methanone] returned a melting point of 134 to 135 °C.
Turning to `Cn1cc(-c2ccnc(N[C@H]3CC[C@H](O)CC3)n2)c2ccccc21` [Example 17, trans-4-[4-(1-Methyl-1H-indol-3-yl)-pyrimidin-2-ylamino]-cyclohexanol], the melting point lay in the range of 194.5 to 195.3 °C.
To `O=C(COc1cccc2c1cnn2-c1ccnc(N[C@H]2CC[C@H](O)CC2)n1)N[C@H]1CC[C@H](O)CC1` [Compound 95, N-(4-hydroxy-cyclo-hexyl)-2-{1-[2-(4-hydroxy-cyclohexyl-amino)-pyrimidin-4-yl]-1H-indazol-4-yloxy}-acetamide] belongs 220 to 222.3 °C; to `CCS(=O)(=O)Cc1cccc2c1ccn2-c1ccnc(N[C@H]2CC[C@H](O)CC2)n1` [Compound 108, 4-[4-(4-ethanesulfonyl-methyl-indol-1-yl)-pyrimidin-2-ylamino]-cyclohexanol], 193.3 to 194.6 °C; to `COc1cccc2c1cnn2-c1ccnc(NC2CCC(NC(C)=O)CC2)n1` (centres unmarked) [Compound 91, N-{4-[4-(4-methoxy-indazol-1-yl]-pyrimidin-2-ylamino}-cyclohexane}-acetamide], 256.9 to 259.9 °C.
As to `CC(=O)N[C@H]1CC[C@H](Nc2nccc(-n3ncc4c(OC[C@@H](C)CO)cccc43)n2)CC1` (stereo in doubt) [Compound 172, N-(4-{4-[4-(3-hydroxy-2-methylpropoxy)-indazol-1-yl]-pyrimidin-2-ylamino}-cyclohexyl)-acetamide], the melting point fell in the range of 215 to 216 °C.
